The source of these data is publication PMC7571299 (ACS Pharmacology & Translational Science, 2020).

Each structure is given as a SMILES string. Entries after “also recorded” stand apart in the source; their conditions may differ. Where two headings read alike, the source gives them in different places.

Series [1] has as its system SARS-CoV-2 Isolate USA-WA1/2020. Put plainly: Vero E6 cell assay. The class given is cell-based.
Series [2] deals with SARS-CoV-2. The class given is cell-based.
Series [3] relates to Vero E6 cells. The conditions noted are these: Vero E6, absence of virus, UTHSC.
For series [4] the following is noted: cited from earlier work.
Series [5] has as its system SARS-CoV-2. The class given is cell-based. This is another data set of the same source.
The test system of series [6] is SARS-CoV-2. The conditions noted are these: cited from earlier work; for Activity in NCATS CPE experiments: NCATS HTS.

Consider `CCNCc1cc(Nc2ccnc3cc(Cl)ccc23)ccc1O` [N-monodesethyl amodiaquine], for which the “Antiviral activity compared to chloroquine” value in series [1] was “almost inactive”. The compound also came in with an EC50 in series [2] of 4 µM. Further, in series [3], the CC50 was determined as 5.9 µM. Moreover, the half-life in series [4] is around 20.8 days; in series [4] (human, in vivo), “over 3 weeks”. For `Nc1c(Br)cc(Br)cc1CN[C@H]1CC[C@H](O)CC1` [ambroxol], the “Reduction of virus titer” value in series [5] was “inactive; also recorded: Neither primaquine nor ambroxol were found to reduce the virus titer”. In addition, the “Activity in NCATS CPE experiments” value in series [6] was “low activity”. In the case of `CCN(CC)Cc1cc(Nc2ccnc3cc(Cl)ccc23)ccc1O` [amodiaquine], in series [6], the “Activity in NCATS CPE experiments” value is on record as “high activity”. In addition, in series [4], the half-life was 0.12 days. Consider `CN(Cc1cc(Br)cc(Br)c1N)C1CCCCC1` [bromhexine], for which the “Activity in NCATS CPE experiments” value in series [6] is given as “found active”. Besides, the EC50 in series [6] (read-out: EC50 in CPE assay, NCATS) was 13.9 µM. As to `CCN(CC)CCCC(C)Nc1ccnc2cc(Cl)ccc12` (centres unmarked) [chloroquine], the “Reduction of virus titer” value in series [5] is given as “did not reduce the virus titer”. Turning to `O=C(OCC(O)CO)c1ccccc1Nc1ccnc2cc(Cl)ccc12` (centres unmarked) [glafenine], the “Activity in NCATS CPE experiments” value in series [6] is on record as “low activity”. Consider `CC(COc1ccccc1)NC(C)C(O)c1ccc(O)cc1` (centres unmarked) [isoxsuprine], for which the “Activity in NCATS CPE experiments” value in series [6] is “low activity”. For `OC(CNCC(O)C1CCc2cc(F)ccc2O1)C1CCc2cc(F)ccc2O1` (centres unmarked) [nebivolol], the “Reduction of virus titer” value in series [5] is given as “more than 1 log units”. For the same compound, the “Activity in NCATS CPE experiments” value in series [6] is “poor activity”.

Regarding `Cc1[nH]c2ccccc2c1CCNCc1ccc(/C=C/C(=O)NO)cc1` [panobinostat], in series [6], the “Activity in NCATS CPE experiments” value is “low activity”. As for `CCCCc1nc2cc(/C=C/C(=O)NO)ccc2n1CCN(CC)CC` [pracinostat], in series [6], the “Activity in NCATS CPE experiments” value is “low activity”. Turning to `COc1cc(NC(C)CCCN)c2ncccc2c1` (centres unmarked) [primaquine], in series [1], the “Antiviral activity in dose-response experiment in comparison with chloroquine” value is “no appreciable activity”. Besides, the “Antiviral activity at the tested concentrations” value in series [2] (UTHSC dose response) was “did not exhibit appreciable activity”. The “Reduction of virus titer” value in series [5] is given as “Neither primaquine nor ambroxol were found to reduce the virus titer”.

With `CCC(CC)COC(=O)[C@H](C)N[P@](=O)(OC[C@H]1O[C@@](C#N)(c2ccc3c(N)ncnn23)[C@H](O)[C@@H]1O)Oc1ccccc1` [remdesivir], in series [5], the “Reduction of virus titer” value is on record as 3–4 log units. For `O=C(CCCCCCC(=O)Nc1ccccc1)NO` [vorinostat], in series [6], the “Activity in NCATS CPE experiments” value was “low activity”. Compound `OCCN1CCN(CC/C=C2/c3ccccc3Sc3ccc(Cl)cc32)CC1` [zuclopenthixol] gave a Peak of activity in series [2] (8.33 μM, UTHSC) of 80%. The “Reduction of virus titer” value in series [5] was “more than 1 log unit”. The bioavailability result in series [4] (listed as ZPX) was “about 50%”.
